Experimental data reported in patent US20260167656A1, “PHOSPHORAMIDATE COMPOUNDS AND USES THEREOF” (ALLORION THERAPEUTICS INC, priority 2022, published 2026).

What was measured:
[1] = test system: non-small cell lung cancer cell line H460; assay: In vitro human cancer cell line cytotoxicity (proliferation) assay in H460, CellTiter-Glo, 72 hours; type: cell-based; conditions: H460 cells, DMSO condition (no AKR1C3 inhibitor), read-out: CTG H460: Avg IC50 (nM) [Assay Condition: DMSO]
Outline: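 IC50s in nM come from CellTiter-Glo viability read after 72 h of compound exposure. Compounds went in from 10 mM DMSO stocks onto H460 cells, which had been plated at 3×10^3 per well and grown 24 h beforehand at 37 °C, 5% CO2.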

[2] = test system: non-small cell lung cancer cell line H460; assay: H460 proliferation assay in the presence of 3 uM ASP9521 (AKR1C3 specific inhibitor); type: cell-based, human; conditions: H460 cells, CellTiter-Glo, 72 hours, in the presence of 3 uM ASP9521 added 4 hours prior to compounds; read-out: CTG H460: Avg IC50 (nM) [Assay Condition: ASP9521]
Outline: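 AKR1C3 blocked with 3 uM ASP9521 given 4 h ahead of test compounds. H460 cells, plated 24 h earlier, were then treated for 72 h at 37 °C in 5% CO2. CellTiter-Glo luminescence gave viability.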

SMILES | IC50 [1] | IC50 [2] | IC50 ([1]; Homo sapiens, NCI-H460, 72 h)
C[C@H](OP(=O)(N1CC1)N1CC1)c1cc2cc(Oc3cccc(C4CC4)c3)c([N+](=O)[O-])cc2o1 [Example 562] | < 10 nM | 3040 nM | –
O=c1ccccn1-c1cccc(Oc2c([N+](=O)[O-])ccc3c2CCC3OP(=O)(N2CC2)N2CC2)c1 (stereo not shown) [Example 81] | < 10 nM | 829 nM | –
Cn1cc(-c2cccc(Oc3c([N+](=O)[O-])ccc4c3CCC4OP(=O)(N3CC3)N3CC3)c2)cn1 (single isomer, unassigned) [Example 77] | < 10 nM | 1890 nM | –
Cc1nsc(-c2cccc(Oc3c([N+](=O)[O-])ccc4c3CC[C@@H]4OP(=O)(N3CC3)N3CC3)c2F)n1 [Example 360] | – | 391 nM | < 10 nM
O=[N+]([O-])c1cc2c(cc1Oc1ccc(-c3ccc(F)cn3)c(F)c1)C(OP(=O)(N1CC1)N1CC1)CC2 (stereo not shown) [Example 142] | – | 4130 nM | < 10 nM
O=[N+]([O-])c1ccc2c(c1Oc1cccc(-c3ncc(F)cn3)c1)CCC2OP(=O)(N1CC1)N1CC1 (stereo not shown) [Example 87] | 10 to 50 nM | 5890 nM | –
O=[N+]([O-])c1cc2c(cc1Oc1ccc(-c3ccccn3)cc1)C(OP(=O)(N1CC1)N1CC1)CC2 (stereo not shown) [Example 523] | < 10 nM | 2070 nM | –
Cn1nc(F)cc1-c1cccc(Oc2c([N+](=O)[O-])ccc3c2CCC3OP(=O)(N2CC2)N2CC2)c1 (stereo not shown) [Example 374] | < 10 nM | 468 nM | –
CN(C(=O)c1cccc(Oc2c([N+](=O)[O-])ccc3c2CCC3OP(=O)(N2CC2)N2CC2)c1)c1cnn(C)c1 (racemic) [Example 251] | < 10 nM | 1090 nM | –
CC(OP(=O)(N1CC1)N1CC1)c1ccc([N+](=O)[O-])c(COc2ccc(C(=O)N(C)C)cn2)c1 (stereo not shown) [Example 7] | – | 3950 nM | 10 to 50 nM
Cc1coc(-c2ccc(Oc3c([N+](=O)[O-])ccc4c3CC[C@@H]4OP(=O)(N3CC3)N3CC3)cc2)n1 [Example 291] | – | 1970 nM | < 10 nM
Cc1cnc(-c2cccc(Oc3c([N+](=O)[O-])ccc4c3CC[C@@H]4OP(=O)(N3CC3)N3CC3)c2)o1 [Example 295, (S)-4-(3-(5-methyloxazol-2-yl)phenoxy)-5-nitro-2,3-dihydro-1H-inden-1-yl di(aziridin-1-yl)phosphinate] | – | 3620 nM | 10 to 50 nM
O=[N+]([O-])c1ccc2c(c1Oc1cccc(OC3CCC3)c1)CC[C@@H]2OP(=O)(N1CC1)N1CC1 [Example 463] | < 10 nM | 478 nM | –
CN1Cc2ccc(Oc3cc4c(cc3[N+](=O)[O-])OCCC4OP(=O)(N3CC3)N3CC3)cc2C1=O (single isomer, unassigned) [Example 201] | – | 605 nM | < 10 nM
CC(OP(=O)(N1C[C@@H]1C)N1C[C@@H]1C)c1ccc([N+](=O)[O-])c(Oc2ccc(C(=O)N(C)C)cc2)c1 (stereo partly shown) [Example 213] | – | 1200 nM | < 10 nM
CNC(=O)c1cccc(Oc2cc3cc(C(C)OP(=O)(N4CC4)N4CC4)oc3cc2[N+](=O)[O-])c1 (stereo not shown) [Example 539] | – | 2730 nM | < 10 nM
O=[N+]([O-])c1ccc2c(c1Oc1ccc(F)c(OC(F)F)c1)CCC2OP(=O)(N1CC1)N1CC1 (stereo not shown) [Example 477] | < 10 nM | 627 nM | –
O=C(c1cccc(Oc2c([N+](=O)[O-])ccc3c2CCC3OP(=O)(N2CC2)N2CC2)c1)N1CCCCC1 (single isomer, unassigned) [Example 69] | < 10 nM | 573 nM | –
Cn1cc(-c2cc(Oc3c([N+](=O)[O-])ccc4c3CCC4OP(=O)(N3CC3)N3CC3)ccc2F)cn1 (stereo not shown) [Example 330] | < 10 nM | 2980 nM | –
O=C1c2cc(Oc3cc4c(cc3[N+](=O)[O-])OCCC4OP(=O)(N3CC3)N3CC3)ccc2CN1C1CC1 (single isomer, unassigned) [Example 203] | – | 959 nM | < 10 nM
Cn1cnc(-c2cccc(Oc3c([N+](=O)[O-])ccc4c3CCC4OP(=O)(N3CC3)N3CC3)c2)cc1=O (stereo not shown) [Example 117] | ≥ 100 nM | 1030 nM | –
O=[N+]([O-])c1ccc2c(c1Oc1ccc(-c3ccccc3)cc1)OCCC2OP(=O)(N1CC1)N1CC1 (stereo not shown) [Example 134] | – | 1510 nM | 10 to 50 nM
O=C1c2cc(Oc3cc4c(cc3[N+](=O)[O-])CCC4OP(=O)(N3CC3)N3CC3)ccc2CN1C1COC1 (stereo not shown) [Example 162] | – | 969 nM | < 10 nM
CN1CCOc2ccc(Oc3cc4c(cc3[N+](=O)[O-])CCC4OP(=O)(N3CC3)N3CC3)cc2C1=O (stereo not shown) [Example 159] | ≥ 100 nM | > 10000 nM | –
Cc1noc(-c2cccc(Oc3c([N+](=O)[O-])ccc4c3CCC4OP(=O)(N3CC3)N3CC3)c2)n1 (stereo not shown) [Example 120] | < 10 nM | 2080 nM | –

SMILES | IC50 [1] | IC50 [2] | IC50 ([1]; Homo sapiens, NCI-H460, 72 h)
Cn1cc(-c2ccc(Oc3cc4c(cc3[N+](=O)[O-])CCC4OP(=O)(N3CC3)N3CC3)cc2)cn1 (stereo not shown) [Example 180] | – | 1950 nM | < 10 nM
O=[N+]([O-])c1ccc2c(c1Oc1ccc(-c3ccc(F)cc3)c(F)c1)CCC2OP(=O)(N1CC1)N1CC1 (single isomer, unassigned) [Example 28] | < 10 nM | 870 nM | –
CN(C(=O)c1cccc(Oc2c([N+](=O)[O-])ccc3c2CCC3OP(=O)(N2CC2)N2CC2)c1)c1ccccn1 (stereo not shown) [Example 247] | < 10 nM | 764 nM | –
O=[N+]([O-])c1ccc2c(c1Oc1cccc(OCC3CC3)c1)CCC2OP(=O)(N1CC1)N1CC1 (stereo not shown) [Example 480] | < 10 nM | 1760 nM | –
O=[N+]([O-])c1ccc2c(c1Oc1cccc(-c3cccnc3)c1)CC[C@@H]2OP(=O)(N1CC1)N1CC1 [Example 310] | – | 2010 nM | < 10 nM
CN(C)C(=O)c1ccc(Oc2c([N+](=O)[O-])ccc3c2OCCC3OP(=O)(N2CC2)N2CC2)cc1 (single isomer, unassigned) [Example 130] | – | 389 nM | 10 to 50 nM
O=[N+]([O-])c1ccc2c(c1Oc1cccc(C3CC3)c1)CCC2OP(=O)(N1CC1)N1CC1 (stereo not shown) [Example 316] | < 10 nM | 781 nM | –
O=[N+]([O-])c1ccc2c(c1Oc1ccc(F)c(-c3cn[nH]c3)c1)CC[C@@H]2OP(=O)(N1CC1)N1CC1 [Example 370] | – | 967 nM | < 10 nM
O=C(c1ccc(Oc2c([N+](=O)[O-])ccc3c2CCC3OP(=O)(N2CC2)N2CC2)cc1)N1CCOCC1 (stereo not shown) [Example 34] | – | 822 nM | 10 to 50 nM
Cc1nccc(-c2ccc(Oc3c([N+](=O)[O-])ccc4c3CC[C@H]4OP(=O)(N3CC3)N3CC3)cc2)n1 [Example 286] | < 10 nM | 1870 nM | –
O=[N+]([O-])c1ccc2c(c1Oc1cccc(-c3ccc(F)cn3)c1)CCC2OP(=O)(N1CC1)N1CC1 (racemic) [Example 320] | < 10 nM | 2230 nM | –
Cc1csc(-c2cc(Oc3c([N+](=O)[O-])ccc4c3CCC4OP(=O)(N3CC3)N3CC3)ccc2F)n1 (stereo not shown) [Example 340] | 10 to 50 nM | 4390 nM | –
CN1Cc2ccc(Oc3cc4c(cc3[N+](=O)[O-])OCCC4OP(=O)(N3CC3)N3CC3)cc2C1=O (stereo not shown) [Example 199, 6-((2-methyl-3-oxoisoindolin-5-yl)oxy)-7-nitrochroman-4-yl di(aziridin-1-yl)phosphinate] | – | 416 nM | < 10 nM
O=[N+]([O-])c1ccc2c(c1Oc1ccc(F)c(-c3ncns3)c1)CC[C@@H]2OP(=O)(N1CC1)N1CC1 [Example 347] | – | 1300 nM | < 10 nM
O=C(c1cccc(Oc2cc3cc(COP(=O)(N4CC4)N4CC4)oc3cc2[N+](=O)[O-])c1)N1CCCC1 [Example 530, (6-nitro-5-(3-(pyrrolidine-1-carbonyl)phenoxy)benzofuran-2-yl)methyl di(aziridin-1-yl)phosphinate] | – | 697 nM | < 10 nM
Cn1ccc2cc(Oc3c([N+](=O)[O-])ccc4c3CCC4OP(=O)(N3CC3)N3CC3)ccc2c1=O (stereo not shown) [Example 381] | – | 312 nM | < 10 nM
Cc1csc(-c2ccc(Oc3c([N+](=O)[O-])ccc4c3CCC4OP(=O)(N3CC3)N3CC3)cc2)n1 (stereo not shown) [Example 289] | < 10 nM | 1090 nM | –
CN(C)C(=O)c1cccc(Oc2c([N+](=O)[O-])ccc3c2OCCC3OP(=O)(N2CC2)N2CC2)c1 (stereo not shown) [Example 128] | – | 491 nM | < 10 nM
CC(C)COc1cc(Oc2c([N+](=O)[O-])ccc3c2CC[C@H]3OP(=O)(N2CC2)N2CC2)ccc1F [Example 499] | – | 918 nM | < 10 nM
CNC(=O)c1ccc(Oc2cc3c(cc2[N+](=O)[O-])CCC3OP(=O)(N2CC2)N2CC2)cc1 (single isomer, unassigned) [Example 151] | < 10 nM | 306 nM | –
O=[N+]([O-])c1cc2c(cc1Oc1ccc(-c3ccc(F)cc3)cc1)C(OP(=O)(N1CC1)N1CC1)CC2 (stereo not shown) [Example 145] | < 10 nM | 1120 nM | –
CC(OP(=O)(N1CC1)N1CC1)c1ccc([N+](=O)[O-])c(Cn2ccc(=O)cc2)c1 (stereo not shown) [Example 4] | – | > 10000 nM | ≥ 100 nM
CNC(=O)c1ccc(Oc2c([N+](=O)[O-])ccc3c2CCC3OP(=O)(N2CC2)N2CC2)cc1 (stereo not shown) [Example 36] | – | 527 nM | 10 to 50 nM
O=[N+]([O-])c1ccc2c(c1Oc1ccc(F)c(OCC3CC3)c1)CC[C@@H]2OP(=O)(N1CC1)N1CC1 [Example 489] | – | 1660 nM | < 10 nM
Cc1ncn(-c2cccc(Oc3c([N+](=O)[O-])ccc4c3CC[C@@H]4OP(=O)(N3CC3)N3CC3)c2)n1 [Example 500] | – | 1300 nM | < 10 nM
